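Each compound was tested at five concentrations against cells in 96-well plates for 48 hours. Abbreviation: GI50, concentration required for 50% inhibition of growth.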 Calls of active or inactive are those of the source. Rule as the data show it: active = GI50 up to about 1.1 µM and inactive = higher.
Experiments:
Assay in all cases: growth of human tumour cells (NCI), 48 h
[1] = test system: 786-0
[2] = test system: A498
[3] = test system: A549
[4] = test system: BT-549
[5] = test system: CAKI-1
[6] = test system: CCRF-CEM
[7] = test system: COLO 205
[8] = test system: DU-145
[9] = test system: EKVX
[10] = test system: HCT-116
[11] = test system: HCT-15
[12] = test system: HL-60
[13] = test system: HOP-62
[14] = test system: HOP-92
[15] = test system: HT-29
[16] = test system: Hs-578T
[17] = test system: IGROV-1
[18] = test system: K562
[19] = test system: KM12
[20] = test system: LOX IMVI
[21] = test system: MCF7
[22] = test system: MDA-MB-435
[23] = test system: MDA-N
[24] = test system: MOLT-4
[25] = test system: NCI-H226
[26] = test system: NCI-H460
[27] = test system: NCI-H522
[28] = test system: NCI/ADR-RES
[29] = test system: OVCAR-3
[30] = test system: OVCAR-4
[31] = test system: OVCAR-5
[32] = test system: OVCAR-8
[33] = test system: PC-3
[34] = test system: RPMI-8226
[35] = test system: RXF 393
[36] = test system: SF-295
[37] = test system: SF-539
[38] = test system: SK-MEL-28
[39] = test system: SK-MEL-2
[40] = test system: SK-MEL-5
[41] = test system: SK-OV-3
[42] = test system: SN12C
[43] = test system: SNB-19
[44] = test system: SNB-75
[45] = test system: SR
[46] = test system: SW-620
[47] = test system: TK-10
[48] = test system: U-251
[49] = test system: UACC-257
[50] = test system: UACC-62
[51] = test system: ACHN
[52] = test system: HCC 2998
[53] = test system: M14
[54] = test system: MDA-MB-231
[55] = test system: Malme-3M
[56] = test system: NCI-H23
[57] = test system: UO-31
[58] = test system: SF-268

O=c1n(CCCN2CCN(c3cccc(Cl)c3)CC2)nc2n1-c1ccc3ccccc3c1SC2
GI50 [1]: > 100 µM (inactive)
GI50 [2]: > 100 µM (inactive)
GI50 [3]: > 100 µM (inactive)
GI50 [4]: > 100 µM (inactive)
GI50 [5]: > 100 µM (inactive)
GI50 [6]: > 100 µM (inactive)
GI50 [7]: 4.4 µM (inactive)
GI50 [8]: > 100 µM (inactive)
GI50 [9]: 99.3 µM (inactive)
GI50 [10]: 9.46 µM (inactive)
GI50 [11]: > 100 µM
GI50 [12]: > 100 µM (inactive)
GI50 [13]: > 100 µM (inactive)
GI50 [14]: > 100 µM (inactive)
GI50 [15]: 9.04 µM (inactive)
GI50 [16]: > 100 µM (inactive)
GI50 [17]: > 100 µM (inactive)
GI50 [18]: > 100 µM (inactive)
GI50 [19]: > 100 µM (inactive)
GI50 [20]: > 100 µM (inactive)
GI50 [21]: > 100 µM (inactive)
GI50 [22]: > 100 µM (inactive)
GI50 [23]: > 100 µM (inactive)
GI50 [24]: 7.93 µM (inactive)
GI50 [25]: > 100 µM (inactive)
GI50 [26]: > 100 µM (inactive)
GI50 [27]: > 100 µM (inactive)
GI50 [28]: > 100 µM (inactive)
GI50 [29]: > 100 µM (inactive)
GI50 [30]: > 100 µM (inactive)
GI50 [31]: > 100 µM (inactive)
GI50 [32]: > 100 µM (inactive)
GI50 [33]: > 100 µM (inactive)
GI50 [34]: 58.9 µM (inactive)
GI50 [35]: > 100 µM (inactive)
GI50 [36]: > 100 µM (inactive)
GI50 [37]: > 100 µM (inactive)
GI50 [38]: > 100 µM (inactive)
GI50 [39]: > 100 µM (inactive)
GI50 [40]: 6.01 µM (inactive)
GI50 [41]: > 100 µM (inactive)
GI50 [42]: > 100 µM (inactive)
GI50 [43]: > 100 µM (inactive)
GI50 [44]: > 100 µM (inactive)
GI50 [45]: > 100 µM (inactive)
GI50 [46]: > 100 µM (inactive)
GI50 [47]: > 100 µM (inactive)
GI50 [48]: > 100 µM (inactive)
GI50 [49]: > 100 µM (inactive)
GI50 [50]: > 100 µM (inactive)

Cn1c(=O)n2c(-c3ccccc3)c(-c3ccccc3)n2c1=O
GI50 [1]: > 100 µM (inactive)
GI50 [2]: > 100 µM (inactive)
GI50 [3]: > 100 µM (inactive)
GI50 [51]: > 100 µM (inactive)
GI50 [4]: > 100 µM (inactive)
GI50 [5]: > 100 µM (inactive)
GI50 [6]: > 100 µM (inactive)
GI50 [7]: > 100 µM (inactive)
GI50 [9]: > 100 µM (inactive)
GI50 [52]: > 100 µM (inactive)
GI50 [10]: > 100 µM (inactive)
GI50 [11]: > 100 µM
GI50 [12]: 46.9 µM (inactive)
GI50 [13]: > 100 µM (inactive)
GI50 [14]: > 100 µM (inactive)
GI50 [15]: > 100 µM (inactive)
GI50 [16]: > 100 µM (inactive)
GI50 [17]: > 100 µM (inactive)
GI50 [18]: > 100 µM (inactive)
GI50 [19]: > 100 µM (inactive)
GI50 [20]: > 100 µM (inactive)
GI50 [53]: > 100 µM (inactive)
GI50 [21]: > 100 µM (inactive)
GI50 [54]: > 100 µM (inactive)
GI50 [23]: > 100 µM (inactive)
GI50 [24]: > 100 µM (inactive)
GI50 [55]: > 100 µM (inactive)
GI50 [25]: > 100 µM (inactive)
GI50 [56]: > 100 µM (inactive)
GI50 [26]: > 100 µM (inactive)
GI50 [28]: > 100 µM (inactive)
GI50 [29]: > 100 µM (inactive)
GI50 [30]: > 100 µM (inactive)
GI50 [31]: > 100 µM (inactive)
GI50 [32]: > 100 µM (inactive)
GI50 [33]: > 100 µM (inactive)
GI50 [35]: > 100 µM (inactive)
GI50 [36]: > 100 µM (inactive)
GI50 [37]: > 100 µM (inactive)
GI50 [38]: > 100 µM (inactive)
GI50 [39]: > 100 µM (inactive)
GI50 [40]: > 100 µM (inactive)
GI50 [41]: > 100 µM (inactive)
GI50 [42]: > 100 µM (inactive)
GI50 [43]: > 100 µM (inactive)
GI50 [44]: 99.1 µM (inactive)
GI50 [45]: > 100 µM (inactive)
GI50 [46]: > 100 µM (inactive)
GI50 [47]: > 100 µM (inactive)
GI50 [48]: > 100 µM (inactive)
GI50 [49]: > 100 µM (inactive)
GI50 [50]: > 100 µM (inactive)
GI50 [57]: 82 µM (inactive)

C/C1=C/C(=O)O[C@@H]2C[C@@H](CC[C@H](C)/C=C\C=C\CC1)O[C@@](O)([C@@H]1CSC(=O)N1)C2 [LATRUNCULIN A]
GI50 [1]: 0.226 µM (active)
GI50 [2]: 0.111 µM (active)
GI50 [3]: 0.564 µM (active)
GI50 [51]: 0.313 µM (active)
GI50 [4]: 0.305 µM (active)
GI50 [5]: 0.0741 µM (active)
GI50 [6]: 0.438 µM (active)
GI50 [7]: 0.18 µM (active)
GI50 [8]: 2.77 µM (inactive)
GI50 [9]: 0.74 µM (active)
GI50 [52]: > 2.97 µM (inactive)
GI50 [10]: 0.773 µM (active)
GI50 [11]: 0.52 µM
GI50 [12]: 3.28 µM (inactive)
GI50 [13]: 0.178 µM (active)
GI50 [14]: 0.116 µM (active)
GI50 [15]: 0.417 µM (active)
GI50 [16]: 0.114 µM (active)
GI50 [17]: 0.133 µM (active)
GI50 [18]: 3.34 µM (inactive)
GI50 [19]: > 10 µM (inactive)
GI50 [53]: 0.565 µM (active)
GI50 [21]: 1.28 µM (inactive)
GI50 [54]: 0.0834 µM (active)
GI50 [22]: 0.44 µM (active)
GI50 [23]: > 5.07 µM (inactive)
GI50 [24]: > 5.83 µM (inactive)
GI50 [55]: 0.895 µM (active)
GI50 [25]: 0.272 µM (active)
GI50 [56]: 2.14 µM (inactive)
GI50 [26]: 0.8 µM (active)
GI50 [28]: 3.01 µM (inactive)
GI50 [29]: 1.03 µM (active)
GI50 [30]: 1.02 µM (active)
GI50 [31]: 0.484 µM (active)
GI50 [32]: 1.41 µM (inactive)
GI50 [33]: 0.299 µM (active)
GI50 [34]: > 10 µM (inactive)
GI50 [35]: 0.191 µM (active)
GI50 [58]: 0.305 µM (active)
GI50 [36]: 0.262 µM (active)
GI50 [37]: 0.171 µM (active)
GI50 [38]: 1.12 µM (inactive)
GI50 [39]: 5.25 µM (inactive)
GI50 [40]: 0.444 µM (active)
GI50 [41]: > 4.16 µM (inactive)
GI50 [42]: 0.428 µM (active)
GI50 [43]: 0.611 µM (active)
GI50 [44]: 0.075 µM (active)
GI50 [45]: 0.653 µM (active)
GI50 [47]: 0.264 µM (active)
GI50 [48]: > 10 µM (inactive)
GI50 [49]: 2.51 µM (inactive)
GI50 [50]: 0.348 µM (active)
GI50 [57]: 0.3 µM (active)
